The values that follow are results of earlier work, collected in patent US10155776B2, “Method for selective detection and estimation of histidine and cystein” (Council of Scientific and Industrial Research, priority 2014, dated 2018).

In the case of `N[C@@H](CCS)C(=O)O` [homocysteine], the “pKa value of the thiol group in the side chain” value is reported as 8.87.
Turning to `N[C@@H](CCC(=O)N[C@@H](CS)C(=O)NCC(=O)O)C(=O)O` [glutathione], the “pKa value of the thiol group in the side chain” value is given as 9.20.
